Laboratory results taken from ChEMBL document CHEMBL3763078, “Cytotoxicity and apoptotic activity of novel organobismuth(V) and organoantimony(V) complexes in different cancer cell lines” (Eur J Med Chem, 2016).

What was measured:
[1] = system: L929; assay: Cytotoxicity against mouse L929 cells assessed as cell viability after 72 hrs by MTT assay; type: cell-based
[2] = Cytotoxicity against mouse B16F10 cells assessed as cell viability after 72 hrs by MTT assay; type: functional, cell-based, B16-F10
[3] = system: K562; assay: Selectivity index, ratio of IC50 for mouse Melan-a cells to IC50 for human K562 cells; type: functional
[4] = system: B16-F10; assay: Selectivity index, ratio of IC50 for mouse Melan-a cells to IC50 for mouse B16F10 cells; type: functional
[5] = system: K562; assay: Selectivity index, ratio of IC50 for mouse L929 cells to IC50 for human K562 cells; type: functional
[6] = system: K562; assay: Cytotoxicity against human K562 cells assessed as cell viability after 72 hrs by tryphan blue assay; type: functional, cell-based
[7] = system: B16-F10; assay: Selectivity index, ratio of IC50 for mouse L929 cells to IC50 for mouse B16F10 cells; type: functional
[8] = Cytotoxicity against mouse Melan-a cells assessed as cell viability after 72 hrs by MTT assay; type: cell-based
[9] = system: B16-F10; assay: Induction of apoptosis in mouse B16F10 cells assessed as late apoptotic cells at 0.1 uM after 48 hrs by annexin V-FITC/propidium iodide staining-based flow cytometric analysis (reference value: 0.450%); type: functional
[10] = system: B16-F10; assay: Induction of apoptosis in mouse B16F10 cells assessed as dead cells at 0.1 uM after 48 hrs by annexin V-FITC/propidium iodide staining-based flow cytometric analysis (reference value: 1.11%); type: functional
[11] = system: B16-F10; assay: Induction of apoptosis in mouse B16F10 cells assessed as viable cells at 0.1 uM after 48 hrs by annexin V-FITC/propidium iodide staining-based flow cytometric analysis (reference value: 98.4%); type: functional; conditions: B16-F10, 48 h, read-out: Activity
[12] = system: B16-F10; assay: Induction of apoptosis in mouse B16F10 cells at 0.1 uM after 48 hrs by annexin V-FITC/propidium iodide staining-based flow cytometric analysis relative to control; type: functional
[13] = system: B16-F10; assay: Induction of apoptosis in mouse B16F10 cells assessed as early apoptotic cells at 0.1 uM after 48 hrs by annexin V-FITC/propidium iodide staining-based flow cytometric analysis (reference value: 0.087%); type: functional
[14] = system: HL-60; assay: Induction of apoptosis in human HL60 cells assessed as increase in sub-diploid DNA content at 0.44 uM after 12 hrs by propidium iodide staining-based flow cytometric analysis relative to control; type: functional, cell-based
[15] = system: HL-60; assay: Induction of apoptosis in human HL60 cells assessed as increase in sub-diploid DNA content at 0.44 uM after 6 hrs by propidium iodide staining-based flow cytometric analysis relative to control; type: functional, cell-based
[16] = system: B16-F10; assay: Induction of apoptosis in mouse B16F10 cells assessed as increase in sub-diploid DNA content at 100 uM after 48 hrs by propidium iodide staining-based flow cytometric analysis relative to control; type: functional, cell-based
[17] = system: B16-F10; assay: Induction of apoptosis in mouse B16F10 cells assessed as increase in sub-diploid DNA content at 100 uM after 24 hrs by propidium iodide staining-based flow cytometric analysis relative to staurosporin; type: functional, cell-based
[18] = system: B16-F10; assay: Induction of apoptosis in mouse B16F10 cells at 100 uM after 48 hrs by annexin V-FITC/propidium iodide staining-based flow cytometric analysis relative to control; type: functional, cell-based
[19] = system: B16-F10; assay: Induction of apoptosis in mouse B16F10 cells at 1 uM after 48 hrs by annexin V-FITC/propidium iodide staining-based flow cytometric analysis relative to control; type: functional, cell-based
[20] = system: B16-F10; assay: Induction of apoptosis in mouse B16F10 cells assessed as early apoptotic cells at 1 uM after 48 hrs by annexin V-FITC/propidium iodide staining-based flow cytometric analysis (reference value: 0.087%); type: functional, cell-based
[21] = system: B16-F10; assay: Induction of apoptosis in mouse B16F10 cells assessed as late apoptotic cells at 100 uM after 48 hrs by annexin V-FITC/propidium iodide staining-based flow cytometric analysis (reference value: 0.450%); type: functional, cell-based
[22] = system: B16-F10; assay: Induction of apoptosis in mouse B16F10 cells assessed as increase in sub-diploid DNA content at 10 uM after 24 hrs by propidium iodide staining-based flow cytometric analysis relative to staurosporin; type: functional, cell-based
[23] = system: B16-F10; assay: Induction of apoptosis in mouse B16F10 cells assessed as increase in sub-diploid DNA content at 10 uM after 48 hrs by propidium iodide staining-based flow cytometric analysis relative to control; type: functional, cell-based
[24] = system: B16-F10; assay: Induction of apoptosis in mouse B16F10 cells at 1 to 100 uM after 48 hrs by annexin V-FITC/propidium iodide staining-based flow cytometric analysis relative to staurosporine; type: functional, cell-based
[25] = system: B16-F10; assay: Induction of apoptosis in mouse B16F10 cells assessed as early apoptotic cells at 10 uM after 48 hrs by annexin V-FITC/propidium iodide staining-based flow cytometric analysis (reference value: 0.087%); type: functional, cell-based
[26] = system: B16-F10; assay: Induction of apoptosis in mouse B16F10 cells assessed as viable cells at 100 uM after 48 hrs by annexin V-FITC/propidium iodide staining-based flow cytometric analysis (reference value: 98.4%); type: functional, cell-based
[27] = system: B16-F10; assay: Induction of apoptosis in mouse B16F10 cells assessed as dead cells at 10 uM after 48 hrs by annexin V-FITC/propidium iodide staining-based flow cytometric analysis (reference value: 1.11%); type: functional, cell-based
[28] = system: B16-F10; assay: Induction of apoptosis in mouse B16F10 cells assessed as late apoptotic cells at 10 uM after 48 hrs by annexin V-FITC/propidium iodide staining-based flow cytometric analysis (reference value: 0.450%); type: functional, cell-based
[29] = system: B16-F10; assay: Induction of apoptosis in mouse B16F10 cells assessed as viable cells at 1 uM after 48 hrs by annexin V-FITC/propidium iodide staining-based flow cytometric analysis (reference value: 98.4%); type: functional, cell-based
[30] = system: B16-F10; assay: Induction of apoptosis in mouse B16F10 cells assessed as increase in sub-diploid DNA content at 100 uM after 24 hrs by propidium iodide staining-based flow cytometric analysis relative to control; type: functional, cell-based
[31] = system: B16-F10; assay: Induction of apoptosis in mouse B16F10 cells assessed as dead cells at 100 uM after 48 hrs by annexin V-FITC/propidium iodide staining-based flow cytometric analysis (reference value: 1.11%); type: functional, cell-based
[32] = system: B16-F10; assay: Induction of apoptosis in mouse B16F10 cells assessed as dead cells at 1 uM after 48 hrs by annexin V-FITC/propidium iodide staining-based flow cytometric analysis (reference value: 1.11%); type: functional, cell-based
[33] = system: B16-F10; assay: Induction of apoptosis in mouse B16F10 cells assessed as early apoptotic cells at 100 uM after 48 hrs by annexin V-FITC/propidium iodide staining-based flow cytometric analysis (reference value: 0.087%); type: functional, cell-based
[34] = system: B16-F10; assay: Induction of apoptosis in mouse B16F10 cells assessed as viable cells at 10 uM after 48 hrs by annexin V-FITC/propidium iodide staining-based flow cytometric analysis (reference value: 98.4%); type: functional, cell-based
[35] = system: B16-F10; assay: Induction of apoptosis in mouse B16F10 cells at 10 uM after 48 hrs by annexin V-FITC/propidium iodide staining-based flow cytometric analysis relative to control; type: functional, cell-based
[36] = system: B16-F10; assay: Induction of apoptosis in mouse B16F10 cells assessed as late apoptotic cells at 1 uM after 48 hrs by annexin V-FITC/propidium iodide staining-based flow cytometric analysis (reference value: 0.450%); type: functional, cell-based
[37] = system: B16-F10; assay: Induction of apoptosis in mouse B16F10 cells assessed as increase in sub-diploid DNA content at 10 uM after 24 hrs by propidium iodide staining-based flow cytometric analysis relative to control; type: functional, cell-based
[38] = Induction of apoptosis in mouse thymocytes at 30 uM after 3 hrs by annexin V-FITC/ethidium bromide staining-based flow cytometric analysis relative to control; type: cell-based; conditions: thymocyte

With CC(=O)c1ccc(C(=O)O)cc1 the IC50 ([1]; Mus musculus, L929, 72 h) was 331 µM, the IC50 ([2]; Mus musculus, B16-F10, 72 h) was 176 µM and the “Ratio IC50” value [3] was less than 1. The “Ratio IC50” value [4] was less than 1, the “Ratio IC50” value [5] was less than 1 and the IC50 ([6]; Homo sapiens, K562, 72 h) was less than 1000 µM. For the same compound, the “Ratio IC50” value [7] was 1.8.

Work on CC(=O)c1ccccc1C(=O)O yielded an IC50 ([8]; Mus musculus, Melan-a, 72 h) of 775 µM, an IC50 ([1]; Mus musculus, L929, 72 h) of 474 µM and an IC50 ([2]; Mus musculus, B16-F10, 72 h) of 852 µM. For the same compound, the “Ratio IC50” value [3] was 1.5, the “Ratio IC50” value [4] was less than 1 and the “Ratio IC50” value [5] was less than 1. The IC50 ([6]; Homo sapiens, K562, 72 h) was 502 µM and the “Ratio IC50” value [7] was less than 1.

For CC(=O)c1ccc(O)c(C(=O)O)c1, the IC50 ([1]; Mus musculus, L929, 72 h) was 306 µM, the IC50 ([2]; Mus musculus, B16-F10, 72 h) was 4880 µM and the “Ratio IC50” value [3] was less than 1. The “Ratio IC50” value [4] was less than 1, the “Ratio IC50” value [5] was less than 1 and the “Ratio IC50” value [7] was less than 1.

CN[C@@H]1C[C@H]2O[C@@](C)([C@@H]1OC)n1c3ccccc3c3c4c(c5c6ccccc6n2c5c31)C(=O)NC4 [STAUROSPORINE] gave an Activity [9] of 43.5%, an Activity [10] of 22.2% and a viability at 0.1 µM [11] of 33.9%. The “fold change (FC)” value [12] was 21 and the Activity [13] was 0.461%.

For Bi-chlorodibenzo[c,f][1,5]thiabismocine, the Activity [14] was 80% and the fold change (FC) [15] was 13.

Work on “Bis-(2-acetylbenzoato)triphenylbismuth(V)” yielded a fold change (FC) [16] of 256, a fold change (FC) [17] of 70 and a fold change (FC) [18] of 34. It also gave a fold change (FC) [19] of 8, an Activity [20] of 15.4% and an Activity [21] of 90.1%. It also gave a fold change (FC) [22] of 18, a fold change (FC) [23] of 129 and a fold change (FC) [24] of 1.5. The Ratio IC50 [3] was 52.4, the Ratio IC50 [4] was 13 and the Activity [25] was 6.81%. The Activity [26] was 1.57%, the Ratio IC50 [5] was 24.6 and the Activity [27] was 10.7%. For the same compound, the Activity [28] was 77.3%, the Activity [29] was 66.1% and the fold change (FC) [30] was 70. The Activity [31] was 7.1%, the Activity [32] was 3.89% and the Activity [33] was 1.25%. It also gave an Activity [34] of 5.22%, a fold change (FC) [35] of 33 and a Ratio IC50 [7] of 6.1. The Activity [36] was 14.6% and the fold change (FC) [37] was 18.

For “Bis-(4-acetylbenzoato)triphenylbismuth(V)”, the Ratio IC50 [3] was 7.4, the Ratio IC50 [4] was 12.7 and the Ratio IC50 [5] was 1. For the same compound, the Ratio IC50 [7] was 1.8.

“Bis-(5-acetylsalicylato)triphenylantimony(V) chloroform solvate” showed a Ratio IC50 [3] of 5.6, a Ratio IC50 [4] of 1.6 and a Ratio IC50 [5] of 7.9. It also gave a Ratio IC50 [7] of 2.2.

With DICHLOROTRIPHENYLBISMUTHANE the IC50 ([8]; melan-a) was 130 µM, the IC50 ([1]; l929) was 154 µM and the IC50 ([2]; b16-f10) was 19.2 µM. It also gave an IC50 ([6]; k562) of 31.1 µM.

For TRIPHENYLBISMUTHINE, the “fold change (FC)” value [38] was 5.

Compound [sequence] has a Ratio IC50 [3] of 4.1, a Ratio IC50 [4] of 6.7 and a Ratio IC50 [5] of 5. The Ratio IC50 [7] was 8.

With “bis-(4-acetylbenzoato)triphenylantimony(V)” the Ratio IC50 [3] was 7.2, the Ratio IC50 [4] was 6.6 and the Ratio IC50 [5] was 3.4. It also gave a Ratio IC50 [7] of 3.1.

With triphenylantimony(V) dichloride the Ratio IC50 [3] was 2.6, the Ratio IC50 [4] was 6.7 and the Ratio IC50 [5] was 2.6. It also gave a Ratio IC50 [7] of 1.9.
